Data: PMC12040169 (PLOS Biology, 2025)

Assay: in vitro
Settings: human, hela cells, % viability

NCCCNC(=O)c1ccc(/C=N/O)nc1 [CBK264524]
viability at 28.5 h, 10 µM: 110%

COc1cccc(/C=C2/NC(=O)N(Cc3ccc(F)cc3)C2=O)c1OCc1cccc(C(=O)O)c1 [CBK265282]
viability at 28.5 h, 10 µM: 89.1%

CN(C)Cc1cn([C@H]2CO[C@H]3[C@@H]2OC[C@@H]3NC(=O)NC2CCCCC2)nn1 [CBK289493]
viability at 28.5 h, 10 µM: 88.9%

COC(=O)c1sccc1NC(=O)COc1ccc([N+](=O)[O-])cc1Cl [CBK066828]
viability at 28.5 h, 10 µM: 109%

Cc1ccc(S(=O)(=O)NCCCO)cc1C(=O)O [CBK266610]
viability at 28.5 h, 10 µM: 89.7%

Nc1nonc1-n1nnc(C(=O)N/N=C/c2ccc([N+](=O)[O-])cc2)c1-c1ccccc1 [CBK261992]
viability at 28.5 h, 10 µM: 86.4%

N#Cc1ccc(Cn2cnc(NC(=O)c3cnccn3)n2)cc1 [CBK305233]
viability at 28.5 h, 10 µM: 88.5%

N#Cc1sc2nc(C34CC5CC(CC(C5)C3)C4)ccc2c1N [CBK267455]
viability at 28.5 h, 10 µM: 93.8%

Cc1onc(-c2ccccc2)c1C(=O)NCCCn1ccnc1 [CBK262870]
viability at 28.5 h, 10 µM: 96.2%

c1csc(Sc2nccnc2N2CCCC2)n1 [CBK093805]
viability at 28.5 h, 10 µM: 107%

O=C1NC2(CCC2)C(=O)N1Cc1coc(-c2cccs2)n1 [CBK305209]
viability at 28.5 h, 10 µM: 95.9%

Cc1cc(/C=C(\C#N)c2nc3ccccc3[nH]2)c(C)n1-c1ccc(C(=O)O)cc1 [CBK267262]
viability at 28.5 h, 10 µM: 94.7%

CC(=O)c1ccc(O)c2ncccc12 [CBK015821]
viability at 28.5 h, 10 µM: 110%

CCNC(=O)Nc1ncc(-c2ccsc2)c2cccnc12 [CBK070686]
viability at 28.5 h, 10 µM: 103%

CC(=O)Nc1cccc(-c2cncc(NCc3cccc(Cl)c3)n2)c1 [CBK065236]
viability at 28.5 h, 10 µM: 97.2%

CC(=O)c1cc(C(=O)N(C)CCOc2ccccc2)cs1 [CBK282560]
viability at 28.5 h, 10 µM: 99.6%

O=C1NC2(CCN(C(=O)C(F)(F)F)CC2)Oc2ccccc21 [CBK283906]
viability at 28.5 h, 10 µM: 94%

Oc1noc(O)c1-c1ncc(C(F)(F)F)cc1Cl [CBK007439]
viability at 28.5 h, 10 µM: 91.1%

CCn1c2ccccc2n2c(SC(C)C(=O)O)nnc12 (stereo not drawn) [CBK267079]
viability at 28.5 h, 10 µM: 103%

CCC1CCCCN1C(=O)c1ccc(C)c(Cl)c1 (stereo not drawn) [CBK082756]
viability at 28.5 h, 10 µM: 91.7%

O=C(O)COCC(=O)N1CCC2(CC1)NC(=O)Cc1c2ccc2ccccc12 [CBK047168]
viability at 28.5 h, 10 µM: 88.4%

CC(=O)Nc1ccc(S(=O)(=O)NCCSc2ccc(C)cc2)cc1 [CBK263563]
viability at 28.5 h, 10 µM: 111%

O=C(Nc1nnc(-c2ccc3c(c2)OCCO3)o1)c1ccc2c(c1)OCCO2 [CBK287403]
viability at 28.5 h, 10 µM: 84.5%

CS(=O)(=O)Nc1ccc(C(=O)NCCN2CCOCC2)cc1 [CBK269781]
viability at 28.5 h, 10 µM: 93.2%

OCCCNc1cc(Nc2ccccc2)n2nccc2n1 [CBK037078]
viability at 28.5 h, 10 µM: 102%

O=C(Cc1ccsc1)N1CCCC2(CCN(Cc3ccccc3)C2)C1 (stereo not drawn) [CBK136868]
viability at 28.5 h, 10 µM: 86.7%

O=C(c1ccc(F)cc1)C1CCN(Cc2cccnc2)CC1 [CBK149118]
viability at 28.5 h, 10 µM: 101%

COc1ccccc1Oc1ccc([N+](=O)[O-])cc1F [CBK002850]
viability at 28.5 h, 10 µM: 90.8%

CSc1nc(NC(=O)C2CCCO2)cc(N2CCNCC2)n1 (stereo not drawn) [CBK026740T]
viability at 28.5 h, 10 µM: 90.5%

COc1ccc(C2NC(C(=O)O)CS2)cc1CN1C[C@@H]2C[C@H](C1)c1cccc(=O)n1C2 (stereo partly drawn) [CBK020798]
viability at 28.5 h, 10 µM: 93.8%

CCCC/C=C/c1cc(NCCc2ccccn2)n2nccc2n1 [CBK037155]
viability at 28.5 h, 10 µM: 96.5%

CC1CCc2n[nH]c(C(=O)NCCCc3ccccn3)c2C1 (stereo not drawn) [CBK283194]
viability at 28.5 h, 10 µM: 105%

CC(C)S(=O)(=O)n1ccn(-c2ccc(N(C)C)cc2)c1=O [CBK106600]
viability at 28.5 h, 10 µM: 95.7%

Cc1ccc(Cn2nc(C(=O)NCCc3c[nH]c4ccccc34)c3ccccc32)cc1 [CBK047830]
viability at 28.5 h, 10 µM (bulk resorufin, single well): 98.7%

O=C1CNC(=O)C2(C/C=C/C[C@H]3COCC[C@@H]3N1)CCN(Cc1ccc(Cl)cn1)CC2 [CBK292132]
viability at 28.5 h, 10 µM: 91%

Cc1c(C(=O)O)sc(S(=O)(=O)N2CCN(C(=O)c3ccc(Cl)cc3)CC2)c1C(=O)O [CBK297123]
viability at 28.5 h, 10 µM: 96.9%
